Measurements reported in patent US20240228443A1, “NOVEL MANUFACTURING METHOD OF D[…] PRECURSORS THEREOF” (GlaxoSmithKline Intellectual Property (No.2) Limited, priority 2021, published 2024).
In brackets after ≈: the same amount, converted by molar mass.

Assay: Solubility by saturation of the solvent, filtration and determination of concentration in the supernatant
Assay type: physicochemical
Settings: thermodynamic from solid
Procedure: The solubility of 5-acetyl-1,3-dicyclohexylpyrimidine-2,4,6(1H,3H,5H)-trione was measured in 29.5% v/v acetic anhydride-acetic acid (a mimic for the solvent composition at the end of Stage 1), acetic acid and water. The solubility was measured by saturation of the solvent with the component, filtration and determination of the component concentration in the supernatant.

Q: For `CC(=O)C1C(=O)N(C2CCCCC2)C(=O)N(C2CCCCC2)C1=O` [5-acetyl-1,3-dicyclohexylpyrimidine-2,4,6(1H,3H,5H)-trione], which solubility (organic solvent or mixture, in 29.5% v/v acetic anhydride-acetic acid at 15° C.) is on record?
A: 43.7 mg/mL (≈ 131 mM)

Q: And the solubility (organic solvent or mixture, in acetic acid at 20° C.)?
A: 62.3 mg/mL (≈ 186 mM)

Q: And the solubility (in water at 25° C.)?
A: < 0.1 mg/mL
